pIC50, pKi: −log10 of the molar value. Bounds are passed on as bounds.

One test concerns the target T1, Adenosine receptor A2b (Homo sapiens, UniProt P29275).
T1 sequence (P29275 whole entry): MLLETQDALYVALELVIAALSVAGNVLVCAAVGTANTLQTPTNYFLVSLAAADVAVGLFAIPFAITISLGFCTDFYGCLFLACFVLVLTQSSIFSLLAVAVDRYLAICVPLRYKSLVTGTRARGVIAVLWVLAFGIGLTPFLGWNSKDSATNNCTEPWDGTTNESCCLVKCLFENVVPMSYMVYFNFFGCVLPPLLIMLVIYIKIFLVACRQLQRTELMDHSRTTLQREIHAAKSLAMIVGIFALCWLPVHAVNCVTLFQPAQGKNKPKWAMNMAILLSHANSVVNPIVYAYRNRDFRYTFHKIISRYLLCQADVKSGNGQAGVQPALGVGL
Description: Displacement of [3H] DPCPX from human recombinant A2B adenosine receptor expressed in HEK293 cells incubated for 30 mins by radioligand binding competition assay. Type of test: cell-based. A general note: Displacement assays read how much labelled ligand stays bound in the presence of the test substance.

The target in another test is T2, Adenosine receptor A3 (Homo sapiens, UniProt P0DMS8).
T2 sequence (P0DMS8 whole entry): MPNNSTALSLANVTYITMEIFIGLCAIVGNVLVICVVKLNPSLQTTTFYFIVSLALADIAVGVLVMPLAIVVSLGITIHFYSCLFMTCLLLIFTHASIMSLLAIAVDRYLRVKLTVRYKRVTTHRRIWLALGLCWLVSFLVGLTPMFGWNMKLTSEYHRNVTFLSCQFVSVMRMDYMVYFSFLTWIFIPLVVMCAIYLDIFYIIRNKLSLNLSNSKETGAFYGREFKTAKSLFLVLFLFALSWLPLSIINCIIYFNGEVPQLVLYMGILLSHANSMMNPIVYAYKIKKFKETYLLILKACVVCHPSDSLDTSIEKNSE
Description: Displacement of [3H] NECA from human recombinant A3 receptor expressed in HeLa cells incubated for 180 mins by radioligand binding competition assay. Type of test: cell-based.

In test [1] the target is T3, Adenosine receptor A2a (Homo sapiens, UniProt P29274). Description: Displacement of [3H] ZM241385 from human recombinant A2A adenosine receptor expressed in HeLa cells incubated for 30 mins by radioligand binding competition assay. Type of test: cell-based.
Test [2] concerns the target T4, Adenosine receptor A1 (Homo sapiens, UniProt P30542).
T4 sequence (P30542 whole entry): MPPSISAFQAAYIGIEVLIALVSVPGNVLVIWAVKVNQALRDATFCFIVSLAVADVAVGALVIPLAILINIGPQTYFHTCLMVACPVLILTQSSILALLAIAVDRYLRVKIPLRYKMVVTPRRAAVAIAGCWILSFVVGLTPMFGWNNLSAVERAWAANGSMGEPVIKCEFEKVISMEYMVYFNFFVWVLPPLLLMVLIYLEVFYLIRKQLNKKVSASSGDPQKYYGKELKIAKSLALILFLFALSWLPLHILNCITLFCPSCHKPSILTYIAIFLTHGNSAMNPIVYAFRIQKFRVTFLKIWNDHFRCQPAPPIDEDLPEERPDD
Description: Displacement of [3H] DPCPX from human recombinant A1 adenosine receptor expressed in CHO cells incubated for 60 mins by radioligand binding competition assay. The format is cell-based.

Test [3] concerns the target T4, Adenosine receptor A1. Description: Antagonist activity at human recombinant adenosine A1 receptor transfected in HEK293 cells co-transfected with Galpha15/16 assessed as intracellular calcium change incubated for 10 mins by microplate reader method. Type of test: functional, cell-based.
The target of test [4] is T3, Adenosine receptor A2a. Description: Antagonist activity at human recombinant adenosine A2A receptor transfected in HEK293 cells co-transfected with Galpha15/16 assessed as intracellular calcium change incubated for 10 mins by microplate reader method. The format is functional, cell-based. Background: Calcium assays in cells follow changes in intracellular calcium, usually with a dye or a luminescent sensor.

T3 sequence (P29274 whole entry): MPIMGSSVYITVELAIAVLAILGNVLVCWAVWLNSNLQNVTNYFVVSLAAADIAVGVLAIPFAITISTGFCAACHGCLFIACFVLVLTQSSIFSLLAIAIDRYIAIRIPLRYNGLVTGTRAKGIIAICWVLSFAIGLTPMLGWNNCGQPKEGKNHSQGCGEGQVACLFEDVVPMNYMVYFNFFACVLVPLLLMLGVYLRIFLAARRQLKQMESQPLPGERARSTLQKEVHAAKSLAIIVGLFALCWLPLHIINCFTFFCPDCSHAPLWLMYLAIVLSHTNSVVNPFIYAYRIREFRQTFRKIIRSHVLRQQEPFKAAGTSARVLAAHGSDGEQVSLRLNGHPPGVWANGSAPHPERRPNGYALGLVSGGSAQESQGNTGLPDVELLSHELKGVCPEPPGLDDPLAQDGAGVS

On to `Cn1cc(-c2cnc(N)n3nc(-c4nccs4)nc23)ccc1=O`, for which the pKi on Adenosine receptor A2b was 5.80; at Adenosine receptor A3, < 5.00; at Adenosine receptor A2a [1] it was 7.07; on Adenosine receptor A1 [2] it was 7.11.
For `Cn1cc(-c2cnc(N)n3nc(-c4ccccn4)nc23)ccc1=O`, in that order: < 5.00, < 5.00, 7.20 and 7.42.
`Cn1nccc1-c1nc2c(-c3ccc(=O)n(C)c3)cnc(N)n2n1`: the pKi on Adenosine receptor A2b was < 5.00; at Adenosine receptor A3, < 5.00; on Adenosine receptor A2a [1] it was 6.10; on Adenosine receptor A1 [2], 5.53.
With `Cc1csc(-c2nc3c(-c4ccc(=O)n(C)c4)cnc(N)n3n2)n1`, the negative-log Ki (pKi) is < 5.00 on Adenosine receptor A2b, < 5.00 on Adenosine receptor A3, 5.99 on Adenosine receptor A2a [1] and 6.03 at Adenosine receptor A1 [2].
On to `Cn1cc(-c2cnc(N)n3nc(-c4ccco4)nc23)ccc1=O`, for which the pKi is 6.31 at Adenosine receptor A2b, 8.25 at Adenosine receptor A2a [1] and 7.62 on Adenosine receptor A1 [2]. Also, the negative-log IC50 (pIC50) was 7.59 at Adenosine receptor A1 [3] and 8.24 on Adenosine receptor A2a [4].
For `Cc1ccc(-c2nc3c(-c4ccc(=O)n(C)c4)cnc(N)n3n2)o1`, the pKi at Adenosine receptor A2b is < 5.00; on Adenosine receptor A3, 5.53; at Adenosine receptor A2a [1] it was 6.35; on Adenosine receptor A1 [2], 7.05.
In the case of `Cn1cc(-c2cnc(N)nc2-c2ccco2)ccc1=O`, the pKi at Adenosine receptor A2b is 7.23; at Adenosine receptor A3, < 5.00; at Adenosine receptor A2a [1], 7.57; at Adenosine receptor A1 [2] it was 7.05.
Regarding `Cc1cnc(-c2nc3c(-c4ccc(=O)n(C)c4)cnc(N)n3n2)s1`, the pKi on Adenosine receptor A2b is 5.00; at Adenosine receptor A3, 5.53; at Adenosine receptor A2a [1], 7.36; on Adenosine receptor A1 [2] it was 7.66.
`Cn1ccc(-c2nc3c(-c4ccc(=O)n(C)c4)cnc(N)n3n2)n1`: the pKi on Adenosine receptor A2b is < 5.00; on Adenosine receptor A3 it was < 5.00; at Adenosine receptor A2a [1] it was 5.47; at Adenosine receptor A1 [2] it was 6.14.
On to `Cc1cccc(-c2nc3c(-c4ccc(=O)n(C)c4)cnc(N)n3n2)n1`, for which the pKi on Adenosine receptor A2b was < 5.00; on Adenosine receptor A3, < 5.00; at Adenosine receptor A2a [1] it was 5.42; on Adenosine receptor A1 [2], 5.76.

Usually pKi stands for the Ki on a negative log10 scale, so that one unit is a factor of ten. In general, pIC50 refers to the negative decadic logarithm of the IC50, by convention in mol/L.

The values above are taken from ChEMBL document CHEMBL5042554, “Discovery of Pyridone-Substituted Triazolopyrimidine Dual A2A/A1 AR Antagonists for the Treatment of Ischemic Stroke” (ACS Med Chem Lett, 2022).
